≈ marks a conversion by molar mass, not a printed value. Read-outs that look alike come from different tables or passages of the source.
Legend:
lung (A549) cancer cells = conditions: cited from earlier work
[1] = system: breast (MDA MB-231) cancer cells; conditions: cited from earlier work
HeLa S3 cells = system: HeLa S3 cells; set-up: method as in PMID 2324009; conditions: cited from earlier work
Bacillus subrifis = system: Bacillus subrifis; set-up: method as in doi:10.1016/0040-4039(93)88010-G; conditions: cited from earlier work
[2] = system: Staphylococcus aureus ATCC 25923; set-up: method as in PMID 24389824; conditions: cited from earlier work
[3] = system: Staphylococcus epidermidis ATCC 12228; set-up: method as in PMID 24389824; conditions: cited from earlier work
α-glucosidase = α-glucosidase (Saccharomyces cerevisiae, UniProt P53341); assay: biochemical; conditions: read-out: IC50, α-glucosidase inhibitory activity
[4] = system: Klebsiella pneumoniae ATCC 13883; assay: Antibacterial assay, broth dilution MIC; format: cell-based
Description: (§1) The MIC values of 5–12 against Staphylococcus aureus ATCC 29213, MRSA, Klebsiella pneumoniae ATCC 13883 and Pseudomonas aeruginosa ATCC 9027 were determined via a broth dilution assay in 96-well plates, with levofloxacin as a control (Table S7).
(§2) The broth dilution method was used to determine the minimum inhibitory concentrations (MICs). The details are described in the Supplementary Materials. […]
(§3) Compounds 5 – 12 were tested for antibacterial activity against Staphylococcus aureus ATCC 29213, methicillin-resistant Staphylococcus aureus (MRSA), Klebsiella pneumoniae ATCC 13883 and Pseudomonas aeruginosa ATCC 9027. The MICs were determined using broth dilution assay. The bacterial strains were cultured overnight and diluted to […] in Luria-Bertani (LB, Table S1) broth. 5 – 12 were dissolved in DMSO, serially diluted to 10 different concentrations (64, 32, 16, 8, 4, 2, 1, 0.5. 0.25, 0.125 μg/mL) using LB broth on the 96 well plate.
(§4) Levofloxacin (Bide Pharmatech Ltd., Shanghai, China) was dissolved in DMSO, serially diluted to 1 0 concentrations (0.125 –64 μg/mL) using LB broth on each 96-well plate. Then 100 μL LB broth containing compounds 5 – 12 or levofloxacin and 100 μL of bacterial solution were mixed per well. The plates were incubated at 37 °C for 18 h. Finally, 50 μL resazurin (Shanghai Macklin Biochemical Technology Co., Ltd., Shanghai, China) was added into each well to visualize the result. […]

[5] = system: Pseudomonas aeruginosa ATCC 9027; assay: Antibacterial assay, broth dilution MIC; format: cell-based
Description: as §1, §2, §3, §4

[6] = system: Staphylococcus aureus ATCC 29213; assay: Antibacterial assay, broth dilution MIC; format: cell-based
Description: as §1, §2, §3, §4

[7] = system: methicillin-resistant Staphylococcus aureus (MRSA); assay: Antibacterial assay, broth dilution MIC; format: cell-based; conditions: 18 h
Description: as §1, §2, §3, §4

[8] = ATCC13883, Klebsiella pneumoniae ATCC 13883, 37 °C, 18 h, read-out: MIC
[9] = ATCC9027, Pseudomonas aeruginosa ATCC 9027, 37 °C, 18 h, read-out: MIC
[10] = ATCC29213, Staphylococcus aureus ATCC 29213, 37 °C, 18 h, read-out: MIC
[11] = Staphylococcus aureus, 37 °C, read-out: MIC

Chain of α-glucosidase (P53341 whole entry): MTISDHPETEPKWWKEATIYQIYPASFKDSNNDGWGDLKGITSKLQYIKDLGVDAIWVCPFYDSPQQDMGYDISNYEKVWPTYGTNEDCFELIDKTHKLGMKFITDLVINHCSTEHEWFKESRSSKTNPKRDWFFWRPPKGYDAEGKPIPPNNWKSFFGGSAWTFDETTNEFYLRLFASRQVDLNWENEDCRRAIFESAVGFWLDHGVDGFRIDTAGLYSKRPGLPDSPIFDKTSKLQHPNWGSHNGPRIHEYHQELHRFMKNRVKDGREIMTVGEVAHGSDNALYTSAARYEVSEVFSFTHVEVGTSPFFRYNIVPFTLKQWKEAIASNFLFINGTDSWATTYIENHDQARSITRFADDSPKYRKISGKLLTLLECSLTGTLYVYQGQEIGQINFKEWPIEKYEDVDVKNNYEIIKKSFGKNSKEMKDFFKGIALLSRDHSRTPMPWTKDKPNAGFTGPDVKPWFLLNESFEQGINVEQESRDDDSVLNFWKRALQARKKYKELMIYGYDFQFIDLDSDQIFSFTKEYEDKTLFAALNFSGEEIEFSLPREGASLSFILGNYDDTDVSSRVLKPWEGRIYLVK

MIC [4, 8] | MIC [7, 11] | Compound | IC50 (α-glucosidase) | MIC [5, 9] | MIC [6, 10] | further results
 |  | 5-Methyl phenazine-1-carboxylic acid [Compound 4] |  |  |  | IC50 (lung (A549) cancer cells): 0.4887 ± 0.00252 µM; IC50 [1]: 0.4586 ± 0.00248 µM
 |  | CC1(C)OC2=C(C(=O)c3cc(O)cc(O)c3C2=O)[C@@H]2C=C(CO)CC[C@@H]21 [Compound 1, naphthgeranine B] |  |  |  | IC50, cytotoxic effect (HeLa S3 cells): 1.6 µg/mL (≈ 4.49 µM)
 |  | CC(C)=CCC[C@@]1(C)OC2=C(C(=O)c3c(Br)c(O)cc(O)c3C2=O)[C@@H]2C=C(C)CC[C@@H]21 [Compound 2, marinone] |  |  |  | MIC (Bacillus subrifis): 1 µg/mL (≈ 2.05 µM)
 |  | Oc1c(Br)ccc2nc3ccccc3nc12 [Compound 3, 2-Bromo-1-hydroxyphenazine] |  |  |  | MIC [2]: 1.72 µg/mL (≈ 6.25 µM); MIC [3]: 1.72 µg/mL (≈ 6.25 µM)
 |  | CC1=CC2C3=C(OC(C)(C)C2CC1O)C(=O)c1c(O)cc(O)cc1C3=O (stereo not shown) [Compound 6, 12-Hydroxy-naphthgeranine A] | 116 ± 4.4 µM |  |  | MIC ([4]; Klebsiella pneumoniae ATCC 13883, 37 °C, 18 h): > 64 µg/mL; MIC ([5]; Pseudomonas aeruginosa ATCC 9027, 37 °C, 18 h): > 64 µg/mL; MIC ([6]; Staphylococcus aureus ATCC 29213, 37 °C, 18 h): > 64 µg/mL; MIC ([7]; 37 °C): > 64 µg/mL
> 64 µg/mL | > 64 µg/mL | O=C(O)c1cccc2c1Nc1ccccc1N2C(=O)CO [Compound 8, 5-(2-hydroxyacetyl)-5,10-dihydrophenazine-1-carboxylic acid] |  | > 64 µg/mL | > 64 µg/mL | 
 |  | O=C(O)c1cccc2nc3ccccc3nc12 [Compound 10, phenazine-1-carboxylic acid] | > 800 µM |  |  | MIC ([4]; Klebsiella pneumoniae, ATCC13883, 18 h): > 64 µg/mL; MIC ([5]; Pseudomonas aeruginosa, ATCC9027, 18 h): > 64 µg/mL; MIC ([6]; Staphylococcus aureus, ATCC29213, 18 h): 32 µg/mL (≈ 143 µM); MIC ([7]; Staphylococcus aureus): > 64 µg/mL
> 64 µg/mL | > 64 µg/mL | COC(=O)c1cccc2nc3ccccc3nc12 [Compound 11, 1-carbomethoxyphenazine] |  |  |  | 
> 64 µg/mL | 16 µg/mL (≈ 88.8 µM) | c1ccc2nc3ccccc3nc2c1 [Compound 12, phenazin] |  |  |  | 
1 µg/mL (≈ 2.77 µM) | 0.5 µg/mL (≈ 1.38 µM) | C[C@H]1COc2c(N3CCN(C)CC3)c(F)cc3c(=O)c(C(=O)O)cn1c23 [LEV, levofloxacin, reference compound] |  | 2 µg/mL (≈ 5.53 µM) | 0.25 µg/mL (≈ 0.692 µM) | 

Compound | MIC [4, 8] | MIC [7, 11] | IC50 (α-glucosidase) | MIC [5, 9] | MIC [6, 10] | further results
CC1=CC2C3=C(OC(C)(C)C2CC1O)C(=O)c1c(O)cc(O)cc1C3=O (stereo not shown) [Compound 5, naphthgeranine G] | > 64 µg/mL | > 64 µg/mL | 66.4 ± 6.7 µM | > 64 µg/mL | > 64 µg/mL | 
CC1=CC2C3=C(OC(C)(C)C2CC1)C(=O)c1c(O)cc(O)cc1C3=O (stereo not shown) [Compound 7, naphthgeranine A] | > 64 µg/mL | > 64 µg/mL | 185.9 ± 0.2 µM | > 64 µg/mL | > 64 µg/mL | 
NC(=O)c1cccc2nc3ccccc3nc12 [Compound 9, phenazine-1-carboxamide] | > 64 µg/mL | 16 µg/mL (≈ 71.7 µM) | 105 ± 10.5 µM | > 64 µg/mL | 64 µg/mL (≈ 287 µM) | 

— PMC11313965, “Bioactive Naphthoquinone and Phenazine Analogs from the Endophytic Streptomyces sp. PH9030 as α-Glucosidase Inhibitors” (Molecules, 2024)
